Data on 5 molecules can be found in ChEMBL document CHEMBL1146714, “Peptidyl hydroxamic acids as methionine aminopeptidase inhibitors” (Bioorg Med Chem Lett, 2004).

Experiment [1] in a line: Inhibitory activity against methionine Escherichia coli aminopeptidase (MetAP).
Experiment [2] concerns the target Methionine aminopeptidase 2 (Homo sapiens, UniProt P50579). Nature of the experiment: Inhibitory activity against Methionine aminopeptidase 2.

Methionine aminopeptidase 2, sequence (P50579 whole entry): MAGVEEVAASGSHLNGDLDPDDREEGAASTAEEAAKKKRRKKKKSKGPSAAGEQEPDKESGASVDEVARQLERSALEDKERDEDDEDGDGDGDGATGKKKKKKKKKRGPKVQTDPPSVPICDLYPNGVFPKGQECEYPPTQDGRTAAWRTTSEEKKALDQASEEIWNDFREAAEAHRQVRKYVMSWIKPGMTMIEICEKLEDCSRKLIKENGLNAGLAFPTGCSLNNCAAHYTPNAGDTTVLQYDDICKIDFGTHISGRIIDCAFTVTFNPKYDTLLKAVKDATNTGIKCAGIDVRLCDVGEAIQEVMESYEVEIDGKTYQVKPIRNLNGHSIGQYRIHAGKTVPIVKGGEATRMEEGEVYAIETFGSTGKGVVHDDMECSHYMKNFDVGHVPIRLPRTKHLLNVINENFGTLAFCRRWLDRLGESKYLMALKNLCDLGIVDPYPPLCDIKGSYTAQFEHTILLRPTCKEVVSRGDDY

On to `CCCC[C@H](N)C(=O)N(O)CCC(=O)NCCc1ccccn1`, for which, in experiment [1], the affinity corresponds to a Ki of 48 µM.

Consider `C[C@@H](N)C(=O)N(O)CC(=O)O`, for which the Ki (commonly a measure of affinity in units of concentration, obtained from inhibition or displacement) in experiment [1] turned out to be 8.8 µM; in experiment [2], 600 µM.

Take `CSCC[C@H](N)C(=O)N(O)CC(=O)NCCc1ccccn1`: the affinity in experiment [1] corresponds to a Ki of 2.5 µM. On to `CCCC[C@H](N)C(=O)N(O)CC(=O)NCCc1ccccn1`, for which the Ki was found to be 59 µM in experiment [1] and 164 µM in experiment [2]. In the case of `CSCC[C@H](N)C(=O)N(O)CC(=O)O`, the Ki in experiment [1] was determined as 170 µM; in experiment [2] it was 1300 µM.
